According to ChEMBL document CHEMBL1130596, “A high affinity, mu-opioid receptor-selective enkephalin analogue lacking an N-terminal tyrosine” (Bioorg Med Chem Lett, 1998):
Starred links: 1 amine or outer side, 2 acyl side, 3 side chain; linkers in the order of their positions; H or OH if unused. Positions of bridges follow the written chain, without caps; N, C: chain ends. Non-standard residues stand in square brackets, D forms with d. Residues, ends and D or L forms follow the SMILES beside them. dPen = CC(C)(S)[C@@H](N)C(=O)O; Pen = CC(C)(S)[C@H](N)C(=O)O; CH2CH2 = C(C[*:2])[*:1]

Legend:
Mu-type opioid receptor = Mu-type opioid receptor (Cavia porcellus, UniProt P97266); test: Binding affinity against mu opioid receptor
Sequence of Mu-type opioid receptor (P97266 whole entry): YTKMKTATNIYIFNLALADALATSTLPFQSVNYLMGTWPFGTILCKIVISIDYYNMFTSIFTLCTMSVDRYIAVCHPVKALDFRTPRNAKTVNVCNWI

[1] = target: Opioid receptors; mu/kappa/delta (Homo sapiens, UniProt P41145+P41143+P35372); test: Agonistic activity tested in vitro in guinea pig ileum opioid; assay type: functional, tissue-based, Cavia porcellus; settings: target entry is the homologue from another species
[2] = Binding affinity against Opioid receptor delta 1

Compound | Ki (Mu-type opioid receptor) [nM] | IC50 [1] [nM] | Ki [2] [nM]
CC1(C)SCCSC[C@@H](NC(=O)[C@@H](N)Cc2ccccc2)C(=O)N[C@@H](Cc2ccccc2)C(=O)N[C@H]1C(N)=O | 1.36 | 9.1 | 
CC1(C)SSC[C@@H](NC(=O)[C@@H](N)Cc2ccccc2)C(=O)N[C@@H](Cc2ccccc2)C(=O)N[C@H]1C(=O)O | 610 |  | 
CC1(C)SSC[C@H](NC(=O)[C@@H](N)Cc2ccc(O)cc2)C(=O)N[C@@H](Cc2ccccc2)C(=O)N[C@@H]1C(=O)O (H-YCF[Pen]-OH; disulfide 2-4) |  |  | 0.74
CC1(C)SCCSC[C@@H](NC(=O)[C@@H](N)Cc2ccc(O)cc2)C(=O)N[C@@H](Cc2ccccc2)C(=O)N[C@H]1C(N)=O (H-Y[dC]F[dPen]-NH2; linker 2-4 via CH2CH2) | 0.29 |  | 
C[C@@H](NC(=O)[C@@H](N)Cc1ccc(O)cc1)C(=O)NCC(=O)N(C)[C@@H](Cc1ccccc1)C(=O)NCCO [DAMGO] | 0.99 |  | 
